Drawing on patent US9499550B2 (BRISTOL-MYERS SQUIBB COMPANY, priority 2012, dated 2016), this text covers EC50 for 13 compounds.

Assay [1] has as its system HCV genotype 1a (H77 strain) replicon in HUH-7 cells. The experiment in a line: HCV replicon luciferase reporter assay, genotype 1a. The following applies: Hepatitis C virus, Huh-7, 72 h, HCV genotype 1a replicon luciferase, 3 days incubation, read-out: LE_1a (EC50, range). Type of assay: cell-based. A digest of the protocol: (§1)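 Replicon inhibition for both genotypes was measured as Renilla luciferase signal (EnduRen, 7.5 μM final, 2 h) after 3-day, 37° C exposure of replicon-bearing HUH-7 cells in 4% FCS DMEM, 0.5% DMSO. The 1b construct carries S1179I; the 1a H77 construct carries P1496L and S2204I. Twenty-point, 3-fold dilutions were fitted four-parametrically for EC50, and CC50 was taken from multiplexed Cell Titer-Blue.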

Assay [2] deals with HCV genotype 1b (Con1) replicon in HUH-7 cells. Description: HCV replicon luciferase reporter assay, genotype 1b. The class given is cell-based. The note with it: Hepatitis C virus, Huh-7, 72 h, HCV genotype 1b replicon luciferase, 3 days incubation, read-out: LE_1b (EC50, range). The gist of the method: as §1

Structures are written as SMILES. Where only a bound is given, the exact number is not on record here.

Consider `CC(C)Oc1ccc2c(O[C@@H]3C[C@H]4C(=O)N[C@]5(C(=O)NS(=O)(=O)C6(C)CC6)C[C@H]5/C=C\CC[C@H](C)C[C@@H](C)[C@H](NC(=O)OC(C)(C)C(F)(F)F)C(=O)N4C3)nccc2c1` [Compound 5158, 1,1,1-trifluoro-2-methylpropan-2-yl((2R,6S,7R,9S,13aS,14aR,16aS,Z)-2-((6-isopropoxyisoquinolin-1-yl)oxy)-7,9-dimethyl-14a-(((1-methylcyclopropyl)sulfonyl)carbamoyl)-5,16-dioxo-1,2,3,5,6,7,8,9,10,11,13a,14,14a,15,16,16a-hexadecahydrocyclopropa[e]pyrrolo[1,2-a][1,4]diazacyclopentadecin-6-yl)carbamate], for which the concentration giving a half-maximal response (EC50) is 4.82 to 103 nM in assay [1] and under 5.46 nM in assay [2].

As to `CC(C)Oc1ccc2c(O[C@@H]3C[C@H]4C(=O)N[C@]5(C(=O)NS(=O)(=O)C6(C)CC6)C[C@H]5/C=C\CC[C@@H](C)C[C@@H](C)[C@H](NC(=O)OC(C)(C)C(F)(F)F)C(=O)N4C3)nccc2c1` [Compound 5159, 1,1,1-trifluoro-2-methylpropan-2-yl((2R,6S,7R,9R,13aS,14aR,16aS,Z)-2-((6-isopropoxyisoquinolin-1-yl)oxy)-7,9-dimethyl-14a-(((1-methylcyclopropyl)sulfonyl)carbamoyl)-5,16-dioxo-1,2,3,5,6,7,8,9,10,11,13a,14,14a,15,16,16a-hexadecahydrocyclopropa[e]pyrrolo[1,2-a][1,4]diazacyclopentadecin-6-yl)carbamate], the EC50 in assay [1] and in assay [2] was under 5.46 nM throughout.

In the case of `CC(C)Oc1ccc2c(O[C@@H]3C[C@H]4C(=O)N[C@]5(C(=O)NS(=O)(=O)C6(C)CC6)C[C@H]5/C=C\CC[C@H](C)C[C@@H](C)[C@H](NC(=O)O[C@H](C)C(F)(F)F)C(=O)N4C3)nccc2c1` [Compound 5160, (R)-1,1,1-trifluoropropan-2-yl ((2R,6S,7R,9S,13aS,14aR,16aS,Z)-2-((6-isopropoxyisoquinolin-1-yl)oxy)-7,9-dimethyl-14a-(((1-methylcyclopropyl)sulfonyl)carbamoyl)-5,16-dioxo-1,2,3,5,6,7,8,9,10,11,13a,14,14a,15,16,16a-hexadecahydrocyclopropa[e]pyrrolo[1,2-a][1,4]diazacyclopentadecin-6-yl)carbamate], the EC50 in assay [1] was 4.82 to 103 nM; in assay [2] it was under 5.46 nM.

As to `CC(C)Oc1ccc2c(O[C@@H]3C[C@H]4C(=O)N[C@]5(C(=O)NS(=O)(=O)C6(C)CC6)C[C@H]5/C=C\CC[C@@H](C)C[C@@H](C)[C@H](NC(=O)O[C@H](C)C(F)(F)F)C(=O)N4C3)nccc2c1` [Compound 5161, (R)-1,1,1-trifluoropropan-2-yl ((2R,6S,7R,9R,13aS,14aR,16aS,Z)-2-((6-isopropoxyisoquinolin-1-yl)oxy)-7,9-dimethyl-14a-(((1-methylcyclopropyl)sulfonyl)carbamoyl)-5,16-dioxo-1,2,3,5,6,7,8,9,10,11,13a,14,14a,15,16,16a-hexadecahydrocyclopropa[e]pyrrolo[1,2-a][1,4]diazacyclopentadecin-6-yl)carbamate], the half-maximal effective concentration (EC50) in assay [1] and in assay [2] was under 5.46 nM in each case.

Consider `CC(C)Oc1ccc2c(O[C@@H]3C[C@H]4C(=O)N[C@]5(C(=O)NS(=O)(=O)C6(C)CC6)C[C@H]5/C=C\CC[C@H](C)C[C@@H](C)[C@H](NC(=O)O[C@@H]5C[C@@H]6C[C@@H]6C5)C(=O)N4C3)nccc2c1` [Compound 5162, (1R,3r,5S)-bicyclo[3.1.0]hexan-3-yl((2R,6S,7R,9S,13aS,14aR,16aS,Z)-2-((6-isopropoxyisoquinolin-1-yl)oxy)-7,9-dimethyl-14a-(((1-methylcyclopropyl)sulfonyl)carbamoyl)-5,16-dioxo-1,2,3,5,6,7,8,9,10,11,13a,14,14a,15,16,16a-hexadecahydrocyclopropa[e]pyrrolo[1,2-a][1,4]diazacyclopentadecin-6-yl)carbamate], for which the results for the concentration giving a half-maximal response (EC50) in assay [1] and in assay [2] were 4.82 to 103 nM and under 5.46 nM, respectively.

As for `CC(C)Oc1ccc2c(O[C@@H]3C[C@H]4C(=O)N[C@]5(C(=O)NS(=O)(=O)C6(C)CC6)C[C@H]5/C=C\CC[C@@H](C)C[C@@H](C)[C@H](NC(=O)O[C@@H]5C[C@@H]6C[C@@H]6C5)C(=O)N4C3)nccc2c1` [Compound 5163, (1R,3r,5S)-bicyclo[3.1.0]hexan-3-yl((2R,6S,7R,9R,13aS,14aR,16aS,Z)-2-((6-isopropoxyisoquinolin-1-yl)oxy)-7,9-dimethyl-14a-(((1-methylcyclopropyl)sulfonyl)carbamoyl)-5,16-dioxo-1,2,3,5,6,7,8,9,10,11,13a,14,14a,15,16,16a-hexadecahydrocyclopropa[e]pyrrolo[1,2-a][1,4]diazacyclopentadecin-6-yl)carbamate], the 50% effective concentration (EC50) in assay [1] and in assay [2] was under 5.46 nM in each case.

With `[2H]C([2H])([2H])C(C)(OC(=O)N[C@@H]1C(=O)N2C[C@H](Oc3nccc4cc(OC(C)C)ccc34)C[C@H]2C(=O)N[C@]2(C(=O)NS(=O)(=O)C3(C)CC3)C[C@H]2/C=C\CC[C@H](C)C[C@H]1C)C([2H])([2H])[2H]` [Compound 5164], the half-maximal effective concentration (EC50) in assay [1] and in assay [2] was 4.82 to 103 nM throughout.

`[2H]C([2H])([2H])C(C)(OC(=O)N[C@@H]1C(=O)N2C[C@H](Oc3nccc4cc(OC(C)C)ccc34)C[C@H]2C(=O)N[C@]2(C(=O)NS(=O)(=O)C3(C)CC3)C[C@H]2/C=C\CC[C@@H](C)C[C@H]1C)C([2H])([2H])[2H]` [Compound 5165]: the EC50 in assay [1] and in assay [2] was under 5.46 nM each time.

As for `[2H]C([2H])([2H])C(OC(=O)N[C@@H]1C(=O)N2C[C@H](Oc3nccc4cc(OC(C)C)ccc34)C[C@H]2C(=O)N[C@]2(C(=O)NS(=O)(=O)C3(C)CC3)C[C@H]2/C=C\CC[C@H](C)C[C@H]1C)(C([2H])([2H])[2H])C([2H])([2H])[2H]` [Compound 5166, 1,1,1,3,3,3-hexadeutero-2-(trideuteromethyl)propan-2-yl((2R,6S,7R,9S,13aS,14aR,16aS,Z)-2-((6-isopropoxyisoquinolin-1-yl)oxy)-7,9-dimethyl-14a-(((1-methylcyclopropyl)sulfonyl)carbamoyl)-5,16-dioxo-1,2,3,5,6,7,8,9,10,11,13a,14,14a,15,16,16a-hexadecahydrocyclopropa[e]pyrrolo[1,2-a][1,4]diazacyclopentadecin-6-yl)carbamate], the EC50 in assay [1] and in assay [2] was 4.82 to 103 nM in each case.

As for `[2H]C([2H])([2H])C(OC(=O)N[C@@H]1C(=O)N2C[C@H](Oc3nccc4cc(OC(C)C)ccc34)C[C@H]2C(=O)N[C@]2(C(=O)NS(=O)(=O)C3(C)CC3)C[C@H]2/C=C\CC[C@@H](C)C[C@H]1C)(C([2H])([2H])[2H])C([2H])([2H])[2H]` [Compound 5167, 1,1,1,3,3,3-hexadeutero-2-(trideuteromethyl)propan-2-yl((2R,6S,7R,9R,13aS,14aR,16aS,Z)-2-((6-isopropoxyisoquinolin-1-yl)oxy)-7,9-dimethyl-14a-(((1-methylcyclopropyl)sulfonyl)carbamoyl)-5,16-dioxo-1,2,3,5,6,7,8,9,10,11,13a,14,14a,15,16,16a-hexadecahydrocyclopropa[e]pyrrolo[1,2-a][1,4]diazacyclopentadecin-6-yl)carbamate], the EC50 in assay [1] and in assay [2] was under 5.46 nM throughout.

As for `CCCOc1ccc2c(O[C@@H]3C[C@H]4C(=O)N[C@]5(C(=O)NS(=O)(=O)C6CC6)C[C@H]5/C=C\CC[C@H](C)C[C@@H](C)[C@H](NC(=O)OC(C)(C)C)C(=O)N4C3)nccc2c1` [Compound 5168, tert-butyl ((2R,6S,7R,9S,13aS,14aR,16aS,Z)-14a-((cyclopropylsulfonyl)carbamoyl)-7,9-dimethyl-5,16-dioxo-2-((6-propoxyisoquinolin-1-yl)oxy)-1,2,3,5,6,7,8,9,10,11,13a,14,14a,15,16,16a-hexadecahydrocyclopropa[e]pyrrolo[1,2-a][1,4]diazacyclopentadecin-6-yl)carbamate], the concentration giving a half-maximal response (EC50) in assay [1] and in assay [2] was under 5.46 nM throughout.

Turning to `CCCOc1ccc2c(O[C@@H]3C[C@H]4C(=O)N[C@]5(C(=O)NS(=O)(=O)C6CC6)C[C@H]5/C=C\CC[C@@H](C)C[C@@H](C)[C@H](NC(=O)OC(C)(C)C)C(=O)N4C3)nccc2c1` [Compound 5169, tert-butyl ((2R,6S,7R,9R,13aS,14aR,16aS,Z)-14a-((cyclopropylsulfonyl)carbamoyl)-7,9-dimethyl-5,16-dioxo-2-((6-propoxyisoquinolin-1-yl)oxy)-1,2,3,5,6,7,8,9,10,11,13a,14,14a,15,16,16a-hexadecahydrocyclopropa[e]pyrrolo[1,2-a][1,4]diazacyclopentadecin-6-yl)carbamate], the EC50 in assay [1] and in assay [2] was under 5.46 nM each time.

As to `CCCOc1ccc2c(O[C@@H]3C[C@H]4C(=O)N[C@]5(C(=O)NS(=O)(=O)C6CC6)C[C@H]5/C=C\CC[C@H](C)C[C@@H](C)[C@H](NC(=O)OC(C)(C)C(F)(F)F)C(=O)N4C3)nccc2c1` [Compound 5170, 1,1,1-trifluoro-2-methylpropan-2-yl((2R,6S,7R,9S,13aS,14aR,16aS,Z)-14a-((cyclopropylsulfonyl)carbamoyl)-7,9-dimethyl-5,16-dioxo-2-((6-propoxyisoquinolin-1-yl)oxy)-1,2,3,5,6,7,8,9,10,11,13a,14,14a,15,16,16a-hexadecahydrocyclopropa[e]pyrrolo[1,2-a][1,4]diazacyclopentadecin-6-yl)carbamate], the values for the concentration giving a half-maximal response (EC50) in assay [1] and in assay [2] were 4.82 to 103 nM and under 5.46 nM, respectively.
